# Measured values: PubChem BioAssay (NCI)
#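 Test compounds were applied to cells in 96-well plates for 48 hours at 5 doses. Definition used: TGI = concentration required for complete inhibition of growth.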
# Tests used:
# Assay in all cases: NCI tumour cell line growth inhibition, 48 h
# MDA-MB-435 = test system: MDA-MB-435
# K-562 leukemia = test system: K-562 leukemia
# SF-539 CNS = test system: SF-539 CNS
# DU-145 prostate = test system: DU-145 prostate
# OVCAR-8 ovarian = test system: OVCAR-8 ovarian
# 786-0 renal = test system: 786-0 renal
# SF-268 CNS = test system: SF-268 CNS
# OVCAR-5 ovarian = test system: OVCAR-5 ovarian
# LOX IMVI melanoma = test system: LOX IMVI melanoma
# UACC-62 melanoma = test system: UACC-62 melanoma
# HT29 colon = test system: HT29 colon
# SK-MEL-28 melanoma = test system: SK-MEL-28 melanoma
# KM12 colon = test system: KM12 colon
# CCRF-CEM leukemia = test system: CCRF-CEM leukemia
# NCI/ADR-RES ovarian = test system: NCI/ADR-RES ovarian
# SN12C renal = test system: SN12C renal
# MDA-N = test system: MDA-N
# SW-620 colon = test system: SW-620 colon
# SK-OV-3 ovarian = test system: SK-OV-3 ovarian
# EKVX NSCLC = test system: EKVX NSCLC
# TK-10 renal = test system: TK-10 renal
# NCI-H23 lung = test system: NCI-H23 lung
# NCI-H460 lung = test system: NCI-H460 lung
# MDA-MB-231 breast = test system: MDA-MB-231 breast
# UACC-257 melanoma = test system: UACC-257 melanoma
# SK-MEL-5 melanoma = test system: SK-MEL-5 melanoma
# MOLT-4 leukemia = test system: MOLT-4 leukemia
# HOP-92 NSCLC = test system: HOP-92 NSCLC
# IGROV1 ovarian = test system: IGROV1 ovarian
# HCT-116 colon = test system: HCT-116 colon
# ACHN renal = test system: ACHN renal
# NCI-H226 lung = test system: NCI-H226 lung
# SR leukemia = test system: SR leukemia
# HL-60(TB) leukemia = test system: HL-60(TB) leukemia
# HCC-2998 colon = test system: HCC-2998 colon
# RPMI-8226 leukemia = test system: RPMI-8226 leukemia
# A549 NSCLC = test system: A549 NSCLC
# NCI-H522 lung = test system: NCI-H522 lung
# M14 melanoma = test system: M14 melanoma
# MCF7 breast = test system: MCF7 breast
# SF-295 CNS = test system: SF-295 CNS
# RXF 393 renal = test system: RXF 393 renal
# OVCAR-3 ovarian = test system: OVCAR-3 ovarian
# OVCAR-4 ovarian = test system: OVCAR-4 ovarian
# SNB-19 CNS = test system: SNB-19 CNS
# CAKI-1 renal = test system: CAKI-1 renal
# COLO 205 colon = test system: COLO 205 colon
# UO-31 renal = test system: UO-31 renal
# HS 578T breast = test system: HS 578T breast
# MALME-3M melanoma = test system: MALME-3M melanoma
# SNB-75 CNS = test system: SNB-75 CNS
# SK-MEL-2 melanoma = test system: SK-MEL-2 melanoma
# A498 renal = test system: A498 renal
# PC-3 prostate = test system: PC-3 prostate
# BT-549 breast = test system: BT-549 breast
# HOP-62 NSCLC = test system: HOP-62 NSCLC
# T-47D breast = test system: T-47D breast
# HCT-15 colon = test system: HCT-15 colon
# U251 CNS = test system: U251 CNS
compound,measurement,setting,value
CCC/C=C/C=C/C(=O)OC1C(C)C2(O)C3C=C(C)C(=O)C3CC(COC(C)=O)=CC2C2C(C)(C)C12OC(=O)C(C)C (stereo not given),TGI,MDA-MB-435,18.3 µM
same,TGI,K-562 leukemia,> 68.6 µM
same,TGI,SF-539 CNS,25 µM
same,TGI,DU-145 prostate,> 100 µM
same,TGI,OVCAR-8 ovarian,55.8 µM
same,TGI,786-0 renal,23.1 µM
same,TGI,SF-268 CNS,28.4 µM
same,TGI,OVCAR-5 ovarian,47.9 µM
same,TGI,LOX IMVI melanoma,34.8 µM
same,TGI,UACC-62 melanoma,16.3 µM
same,TGI,HT29 colon,25 µM
same,TGI,SK-MEL-28 melanoma,26.1 µM
same,TGI,KM12 colon,32 µM
same,TGI,CCRF-CEM leukemia,19.1 µM
same,TGI,NCI/ADR-RES ovarian,47.3 µM
same,TGI,SN12C renal,23.5 µM
same,TGI,MDA-N,20.1 µM
same,TGI,SW-620 colon,20.4 µM
same,TGI,SK-OV-3 ovarian,> 100 µM
same,TGI,EKVX NSCLC,42.5 µM
same,TGI,TK-10 renal,47.1 µM
same,TGI,NCI-H23 lung,26.9 µM
same,TGI,NCI-H460 lung,> 83.7 µM
same,TGI,MDA-MB-231 breast,20.2 µM
same,TGI,UACC-257 melanoma,31.8 µM
same,TGI,SK-MEL-5 melanoma,19.2 µM
same,TGI,MOLT-4 leukemia,16.2 µM
same,TGI,HOP-92 NSCLC,27.2 µM
same,TGI,IGROV1 ovarian,33.1 µM
same,TGI,HCT-116 colon,26.8 µM
same,TGI,ACHN renal,39.3 µM
same,TGI,NCI-H226 lung,42.1 µM
same,TGI,SR leukemia,35.8 µM
same,TGI,HL-60(TB) leukemia,> 48.3 µM
same,TGI,HCC-2998 colon,14.7 µM
same,TGI,RPMI-8226 leukemia,52.5 µM
same,TGI,A549 NSCLC,> 100 µM
same,TGI,NCI-H522 lung,26.8 µM
same,TGI,M14 melanoma,27.7 µM
same,TGI,MCF7 breast,32 µM
same,TGI,SF-295 CNS,22.1 µM
same,TGI,RXF 393 renal,33.6 µM
same,TGI,OVCAR-3 ovarian,32.8 µM
same,TGI,OVCAR-4 ovarian,57.6 µM
same,TGI,SNB-19 CNS,52.6 µM
same,TGI,CAKI-1 renal,33.9 µM
same,TGI,COLO 205 colon,9.18 µM
same,TGI,UO-31 renal,29.4 µM
same,TGI,HS 578T breast,55.4 µM
same,TGI,MALME-3M melanoma,26.5 µM
same,TGI,SNB-75 CNS,36.1 µM
same,TGI,SK-MEL-2 melanoma,35.2 µM
same,TGI,A498 renal,44.9 µM
same,TGI,PC-3 prostate,27.3 µM
same,TGI,BT-549 breast,35.1 µM
same,TGI,HOP-62 NSCLC,0.0586 µM
same,TGI,T-47D breast,35.4 µM
Cc1ccc(/C=N/Nc2ccccn2)s1,TGI,MDA-MB-435,> 100 µM
same,TGI,HCT-15 colon,> 100 µM
same,TGI,SF-539 CNS,> 100 µM
same,TGI,DU-145 prostate,> 100 µM
same,TGI,OVCAR-8 ovarian,> 100 µM
same,TGI,786-0 renal,> 100 µM
same,TGI,SF-268 CNS,> 100 µM
same,TGI,OVCAR-5 ovarian,> 100 µM
same,TGI,LOX IMVI melanoma,> 100 µM
same,TGI,UACC-62 melanoma,> 100 µM
same,TGI,HT29 colon,> 100 µM
same,TGI,SK-MEL-28 melanoma,> 100 µM
same,TGI,KM12 colon,> 100 µM
same,TGI,CCRF-CEM leukemia,> 100 µM
same,TGI,NCI/ADR-RES ovarian,> 100 µM
same,TGI,SN12C renal,> 100 µM
same,TGI,MDA-N,> 100 µM
same,TGI,SW-620 colon,> 100 µM
same,TGI,SK-OV-3 ovarian,> 100 µM
same,TGI,EKVX NSCLC,> 100 µM
same,TGI,TK-10 renal,> 31.6 µM
same,TGI,U251 CNS,> 100 µM
same,TGI,NCI-H23 lung,> 100 µM
same,TGI,NCI-H460 lung,> 100 µM
same,TGI,MDA-MB-231 breast,> 100 µM
same,TGI,UACC-257 melanoma,> 100 µM
same,TGI,SK-MEL-5 melanoma,> 100 µM
same,TGI,MOLT-4 leukemia,> 100 µM
same,TGI,HOP-92 NSCLC,> 100 µM
same,TGI,IGROV1 ovarian,> 100 µM
same,TGI,HCT-116 colon,> 100 µM
same,TGI,ACHN renal,> 100 µM
same,TGI,NCI-H226 lung,> 100 µM
same,TGI,SR leukemia,> 100 µM
same,TGI,HL-60(TB) leukemia,> 100 µM
same,TGI,HCC-2998 colon,> 100 µM
same,TGI,RPMI-8226 leukemia,> 100 µM
same,TGI,A549 NSCLC,> 100 µM
same,TGI,NCI-H522 lung,> 100 µM
same,TGI,M14 melanoma,> 100 µM
same,TGI,MCF7 breast,> 100 µM
same,TGI,SF-295 CNS,> 100 µM
same,TGI,RXF 393 renal,> 100 µM
same,TGI,OVCAR-3 ovarian,> 100 µM
same,TGI,OVCAR-4 ovarian,> 100 µM
same,TGI,SNB-19 CNS,> 100 µM
same,TGI,CAKI-1 renal,> 100 µM
same,TGI,COLO 205 colon,> 100 µM
same,TGI,UO-31 renal,> 100 µM
same,TGI,HS 578T breast,> 100 µM
same,TGI,MALME-3M melanoma,> 100 µM
same,TGI,SNB-75 CNS,> 100 µM
same,TGI,SK-MEL-2 melanoma,> 100 µM
same,TGI,A498 renal,> 100 µM
same,TGI,PC-3 prostate,> 100 µM
same,TGI,BT-549 breast,> 100 µM
same,TGI,HOP-62 NSCLC,> 100 µM
same,TGI,T-47D breast,> 100 µM
